# Measured values from ChEMBL document CHEMBL3351662, “Synthesis, bioassay, and QSAR study of bronchodilatory active 4H-pyrano[3,2-c]pyridine-3-carbonitriles” (Eur J Med Chem, 2015).
# Assay: Bronchodialatory activity in guinea pig trachea assessed as reduction of histamine-induced contracture
# Format: functional, tissue-based, Cavia porcellus
row,IC50 [µM],Structure (SMILES)
1,10.5,CO[C@@]12CCN(C)C[C@H]1[C@H](c1ccc(Cl)cc1)C(C#N)=C(N)O2
2,30.3,CCCN1CC[C@@]2(OC)OC(N)=C(C#N)[C@@H](c3ccc(Cl)cc3)[C@@H]2C1
3,7.9,CO[C@@]12CCN(C)C[C@H]1[C@H](c1ccc(Br)cc1)C(C#N)=C(N)O2
4,29.6,CCCN1CC[C@@]2(OC)OC(N)=C(C#N)[C@@H](c3ccc(F)cc3)[C@@H]2C1
5,16.8,CCN1CC[C@@]2(OC)OC(N)=C(C#N)[C@@H](c3ccc(C)cc3)[C@@H]2C1
6,19.4,CO[C@@]12CCN(C)C[C@H]1[C@H](c1ccc(F)cc1)C(C#N)=C(N)O2
7,23.1,COc1ccc([C@@H]2C(C#N)=C(N)O[C@]3(OC)CCN(C)C[C@@H]23)cc1
8,21.3,CCCN1CC[C@@]2(OC)OC(N)=C(C#N)[C@@H](c3ccc(OC)cc3)[C@@H]2C1
9,13.2,CO[C@@]12CCN(C)C[C@H]1[C@H](c1ccc(C)cc1)C(C#N)=C(N)O2
10,14.9,CCN1CC[C@@]2(OC)OC(N)=C(C#N)[C@@H](c3ccc(Cl)cc3)[C@@H]2C1
11,19,CO[C@@]12CCN(C)C[C@H]1[C@H](c1ccc(N3CCCCC3)cc1)C(C#N)=C(N)O2
12,19.4,CCCN1CC[C@@]2(OC)OC(N)=C(C#N)[C@@H](c3ccc(Br)cc3)[C@@H]2C1
13,14.9,CO[C@@]12CCN(C)C[C@H]1[C@H](c1ccc(Cl)cc1Cl)C(C#N)=C(N)O2
14,19.8,CO[C@@]12CCN(C)C[C@H]1[C@H](c1ccccc1)C(C#N)=C(N)O2
15,21,CCCN1CC[C@@]2(OC)OC(N)=C(C#N)[C@@H](c3ccc(C)cc3)[C@@H]2C1
16,24.2,CO[C@@]12CCN(C)C[C@H]1[C@H](c1ccc3ccccc3c1)C(C#N)=C(N)O2
17,13.2,CCN1CC[C@@]2(OC)OC(N)=C(C#N)[C@@H](c3ccc(Br)cc3)[C@@H]2C1
18,13.8,CO[C@@]12CCN(C)C[C@H]1[C@H](c1ccc(-c3cccs3)cc1)C(C#N)=C(N)O2
19,20.2,CO[C@@]12CCN(C)C[C@H]1[C@H](c1ccc(N3CCOCC3)cc1)C(C#N)=C(N)O2

# Continued, compound first:
row,Structure (SMILES),IC50 [µM]
1,CCN1CC[C@@]2(OC)OC(N)=C(C#N)[C@@H](c3ccc(OC)c(OC)c3)[C@@H]2C1,23.2
2,CCN1CC[C@@]2(OC)OC(N)=C(C#N)[C@@H](c3ccc(N4CCOCC4)cc3)[C@@H]2C1,28.7
3,COc1ccc([C@@H]2C(C#N)=C(N)O[C@]3(OC)CCN(Cc4ccccc4)C[C@@H]23)cc1OC,21.9
4,Cn1c(=O)c2nc[nH]c2n(C)c1=O [THEOPHYLLINE],19.9
5,CCCN1CC[C@@]2(OC)OC(N)=C(C#N)[C@@H](c3ccc(OC)c(OC)c3)[C@@H]2C1,24.7
6,CO[C@@]12CCN(Cc3ccccc3)C[C@H]1[C@H](c1ccc(Cl)cc1)C(C#N)=C(N)O2,18.5
7,CCN1CC[C@@]2(OC)OC(N)=C(C#N)[C@@H](c3ccccc3)[C@@H]2C1,23.4
8,CO[C@@]12CCN(Cc3ccccc3)C[C@H]1[C@H](c1ccc(C)cc1)C(C#N)=C(N)O2,27.1
9,CCCN1CC[C@@]2(OC)OC(N)=C(C#N)[C@@H](c3ccc4ccccc4c3)[C@@H]2C1,37.1
10,CCN1CC[C@@]2(OC)OC(N)=C(C#N)[C@@H](c3ccc(OC)cc3)[C@@H]2C1,25.5
11,COc1ccc([C@@H]2C(C#N)=C(N)O[C@]3(OC)CCN(C)C[C@@H]23)cc1OC,19.1
12,CO[C@@]12CCN(Cc3ccccc3)C[C@H]1[C@H](c1ccc3ccccc3c1)C(C#N)=C(N)O2,23.4
13,CCN1CC[C@@]2(OC)OC(N)=C(C#N)[C@@H](c3ccc(Cl)cc3Cl)[C@@H]2C1,27.1
14,CCN1CC[C@@]2(OC)OC(N)=C(C#N)[C@@H](c3ccc(N4CCCCC4)cc3)[C@@H]2C1,13.8
15,CCCN1CC[C@@]2(OC)OC(N)=C(C#N)[C@@H](c3ccc(Cl)cc3Cl)[C@@H]2C1,35.5
16,CO[C@@]12CCN(Cc3ccccc3)C[C@H]1[C@H](c1ccc(Cl)cc1Cl)C(C#N)=C(N)O2,18.3
17,CCCN1CC[C@@]2(OC)OC(N)=C(C#N)[C@@H](c3ccccc3)[C@@H]2C1,20.7
18,CCN1CC[C@@]2(OC)OC(N)=C(C#N)[C@@H](c3ccc(-c4cccs4)cc3)[C@@H]2C1,19.8
19,CO[C@@]12CCN(Cc3ccccc3)C[C@H]1[C@H](c1ccc(F)cc1)C(C#N)=C(N)O2,17.2
20,CO[C@@]12CCN(Cc3ccccc3)C[C@H]1[C@H](c1ccc(N3CCOCC3)cc1)C(C#N)=C(N)O2,25.4
21,CO[C@@]12CCN(Cc3ccccc3)C[C@H]1[C@H](c1ccccc1)C(C#N)=C(N)O2,22.6
22,COc1ccc([C@@H]2C(C#N)=C(N)O[C@]3(OC)CCN(Cc4ccccc4)C[C@@H]23)cc1,23.1
23,CCN1CC[C@@]2(OC)OC(N)=C(C#N)[C@@H](c3ccc4ccccc4c3)[C@@H]2C1,28.3
